Patent EP4737454A1, “GLP-1 RECEPTOR AGONIST, AND PREPARATION METHOD THEREFOR AND USE THEREOF” (Wayne Biotechnology Co., Ltd., priority 2023, dated 2025)

Legend:
[1] = molecular target: Human GLP-1R (Homo sapiens, UniProt P43220); assay: cAMP level determination in human GLP-1R stably transfected HEK293T cells (HTRF cAMP kit); type: cell-based; settings: 37°C 30 min
How it was run: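 Stably transfected HEK293T cells (1 Million/mL) stimulated 30 min at 37°C with compound (top final 2000 nM, 1:3, 11 points, 0.2% DMSO) plus 0.5 mM IBMX. HTRF cAMP read after 2 hr RT; stimulation % normalised to 100 nM GLP-1 and DMSO wells, cAMP from standard curve, EC50 by four-parameter fit.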

[2] = Pharmacokinetic analysis of compounds in mouse plasma after oral gavage or intravenous injection; type: in vivo, Male C57BL/6J mice; settings: for AUC(0-t) at 24 h / Cmax / Tmax / half-life / clearance: mouse plasma; for AUC(0-t) at 24 h / Cmax / Tmax: dose 5 mg/kg single oral gavage; for half-life: table dose 5 mg/kg (oral gavage); for clearance: table dose 5 mg/kg, IV arm was 1 mg/kg; for F: mouse, PO 5 mg/kg versus IV 1 mg/kg
Method: Male C57BL/6J mice, approximately 30 g, 6-9 weeks old, gavage oral administration and intravenous injection: 3 mice per compound, animals from Shanghai Medicilon Inc.
The pharmacokinetic characteristics of the compounds were tested in mice after oral gavage (PO) or intravenous injection (IV) using a standard protocol. The test compounds were prepared as clear solutions with the vehicle: 10% (v/v) DMSO + 10% (v/v) Solutol + 80% (v/v) Saline. Three mice were administered a single oral gavage dose of 5 mg/kg, and blood samples were collected at 0.25, 0.5, 1, 2, 4, 6, 8, and 24 hours post-dose via submandibular vein or other appropriate methods. Each sample collected was approximately 0.03 mL, anticoagulated with sodium heparin, and placed on ice after collection. Additionally, three mice were administered a single intravenous injection of 1 mg/kg of the test compound, and blood samples were collected at 0.083, 0.25, 0.5, 1, 2, 4, 8, and 24 hours post-dose via submandibular vein or other appropriate methods. Each sample collected was approximately 0.03 mL, anticoagulated with sodium heparin, and placed on ice after collection. Plasma was separated by centrifugation within 1 hour (centrifugation conditions: 6800g, 6 minutes, 2-8°C), and the concentration of the compounds of the present invention was analyzed by LC-MS/MS method.
Prior to analysis, all samples were stored at -80°C, and pharmacokinetic parameters were calculated using Phoenix WinNonlin. Table 2: Pharmacokinetic Parameters

Human GLP-1R, sequence (P43220 24-463): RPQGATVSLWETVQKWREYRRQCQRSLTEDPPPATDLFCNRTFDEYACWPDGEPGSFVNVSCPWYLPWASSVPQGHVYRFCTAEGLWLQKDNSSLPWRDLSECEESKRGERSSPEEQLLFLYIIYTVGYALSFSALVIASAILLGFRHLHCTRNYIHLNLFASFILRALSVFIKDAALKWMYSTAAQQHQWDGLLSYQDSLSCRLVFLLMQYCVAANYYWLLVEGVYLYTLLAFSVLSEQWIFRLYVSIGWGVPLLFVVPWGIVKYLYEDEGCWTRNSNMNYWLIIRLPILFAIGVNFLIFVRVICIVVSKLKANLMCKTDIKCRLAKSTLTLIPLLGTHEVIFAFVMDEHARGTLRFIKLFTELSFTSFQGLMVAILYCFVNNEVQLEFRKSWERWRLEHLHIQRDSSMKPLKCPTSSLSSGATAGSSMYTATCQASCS

Row | Compound | EC50 [1] | AUC(0-t) at 24 h [2] | Cmax [2] | Tmax [2] | half-life [2] | clearance [2] | F [2]
1 | Cc1cc(-n2nc3c(c2-n2ccn(-c4ccc(C(=O)N(C)C5CC5)c(F)c4F)c2=O)[C@H](C)N(C(=O)c2cc4cc([C@H]5CCOC(C)(C)C5)ccc4n2[C@@]2(c4nc(=O)o[nH]4)C[C@@H]2C)CC3)cc(C)c1F [Compound 5] | 7.69 nM | 36700 ng·h/mL | 3880 ng/mL | 1.33 h | 3.11 h | 2.38 mL/min/kg | 105.86%
2 | Cc1cc(-n2nc3c(c2-n2ccn(-c4ccc(C(=O)N(C)C5CC5)c(Cl)c4F)c2=O)[C@H](C)N(C(=O)c2cc4cc([C@H]5CCOC(C)(C)C5)ccc4n2[C@@]2(c4nc(=O)o[nH]4)C[C@@H]2C)CC3)cc(C)c1F [Compound 7] | 6.12 nM | 34700 ng·h/mL | 3120 ng/mL | 1.33 h | 3.41 h | 1.94 mL/min/kg | 81.76%
3 | Cc1cc(-n2nc3c(c2-n2ccn(-c4ccc(C(=O)N(C)C5CC5)c(Cl)c4)c2=O)[C@H](C)N(C(=O)c2cc4cc([C@H]5CCOC(C)(C)C5)ccc4n2[C@@]2(c4nc(=O)o[nH]4)C[C@@H]2C)CC3)cc(C)c1F [Compound 11] | 5.03 nM | 35200 ng·h/mL | 3170 ng/mL | 3 h | 4.27 h | 2.02 mL/min/kg | 87.27%
4 | Cc1cc(-n2nc3c(c2-n2ccn(-c4ccc(C#N)cc4)c2=O)[C@H](C)N(C(=O)c2cc4cc(C5CCOC(C)(C)C5)ccc4n2[C@@]2(c4nc(=O)o[nH]4)C[C@@H]2C)CC3)cc(C)c1F (stereo partly shown) [Compound 90] | 15.1 nM | – | – | – | – | – | –
5 | Cc1cc(-n2nc3c(c2-n2ccn(-c4ccc(C(=O)N(C)C5CC5)cc4C#N)c2=O)[C@H](C)N(C(=O)c2cc4cc(C5CCOC(C)(C)C5)ccc4n2[C@@]2(c4nc(=O)o[nH]4)C[C@@H]2C)CC3)cc(C)c1F (stereo partly shown) [Compound 36] | 67.8 nM | – | – | – | – | – | –
6 | Cc1cc(-n2nc3c(c2-n2ccn(-c4ccc(N(C)C(=O)C5CC5)c(F)c4)c2=O)[C@H](C)N(C(=O)c2cc4cc(C5CCOC(C)(C)C5)ccc4n2[C@@]2(c4noc(=O)[nH]4)C[C@@H]2C)CC3)cc(C)c1F (stereo partly shown) [Compound 63] | 8.69 nM | – | – | – | – | – | –
7 | Cc1cc(-n2nc3c(c2-n2ccn(-c4ccc(N(C)C(=O)C5(C(F)(F)F)CC5)cc4)c2=O)[C@H](C)N(C(=O)c2cc4cc(C5CCOC(C)(C)C5)ccc4n2[C@@]2(c4noc(=O)[nH]4)C[C@@H]2C)CC3)cc(C)c1F (stereo partly shown) [Compound 69] | 10.3 nM | – | – | – | – | – | –
